The record followed here is ChEMBL document CHEMBL5576158, “Recent insights of PROTAC developments in inflammation-mediated and autoimmune targets: a critical review” (RSC Med Chem, 2024).

The term DC50 denotes the midpoint of the concentration-degradation curve. In general, Ki refers to the equilibrium dissociation constant of an inhibitor or competing ligand from its target. The term Emax denotes the maximal effect, on the per cent scale that the assay sets. The term IC50 denotes the midpoint of a concentration-inhibition curve.

Series [1] concerns the target Protein cereblon/Protein deacetylase HDAC6 (Homo sapiens, UniProt Q9UBN7+Q96SW2). As to the kind of experiment: PROTAC activity at CRBN/HDAC6 in human MM1.S cells assessed as HDAC6 degradation incubated for 18 hrs by immunoblot analysis. Format: cell-based. In general terms: Immunoblotting shows a protein as a band on a membrane.
For series [2], the target named is T1, Macrophage migration inhibitory factor (Homo sapiens, UniProt P14174).
T1 sequence (P14174 whole entry): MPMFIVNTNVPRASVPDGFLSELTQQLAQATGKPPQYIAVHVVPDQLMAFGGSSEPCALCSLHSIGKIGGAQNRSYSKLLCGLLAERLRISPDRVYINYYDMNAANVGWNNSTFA
As to the kind of experiment: Binding affinity to MIF in human A549 cells assessed as inhibition constant. Format: cell-based.

Series [3] has as its target von Hippel-Lindau disease tumor suppressor/Receptor-interacting serine/threonine-protein kinase 2 (Homo sapiens) (UniProt O43353+P40337). Kind of series: PROTAC activity at VHL/RIPK2 in human THP-1 cells assessed as RIPK2 degradation by measuring maximal efficacy at 10 nM measured after 16 hrs by Western blot analysis relative to control. Format: cell-based.
Series [4] has as its target Protein cereblon/Histone deacetylase 8 (Homo sapiens, UniProt Q9BY41+Q96SW2). As to the kind of experiment: PROTAC activity at CRBN/HDAC8 in human Jurkat T cells assessed as induction of degradation of HDAC8 by Western blot analysis. Type of series: cell-based.
Series [5] has as its target Receptor-interacting serine/threonine-protein kinase 2 (Homo sapiens) (UniProt O43353). As to the kind of experiment: PROTAC activity at IAP/RIPK2 in human THP-1 cells assessed as […] by Western blot analysis.
The target in series [6] is Protein cereblon/Histone acetyltransferase KAT2B (Homo sapiens) (UniProt Q92831+Q96SW2). As to the kind of experiment: PROTAC activity at PCAF/CRBN in human THP-1 cells assessed as induction of PCAF degradation by measuring maximal efficacy at 30 nM measured for 10 mins by Western blot analysis relative to control. Type of series: cell-based.
For series [7], the target named is Protein cereblon/Histone acetyltransferase KAT2A (Homo sapiens) (UniProt Q92830+Q96SW2). As to the kind of experiment: PROTAC activity at GCN5/CRBN in human THP-1 cells assessed as induction of […] degradation by measuring maximal efficacy at 30 nM measured for 10 mins by Western blot analysis relative to control. Format: cell-based.
Protein cereblon/Histone acetyltransferase KAT2A (Homo sapiens), sequence (Q92830 2-837 limits assumed): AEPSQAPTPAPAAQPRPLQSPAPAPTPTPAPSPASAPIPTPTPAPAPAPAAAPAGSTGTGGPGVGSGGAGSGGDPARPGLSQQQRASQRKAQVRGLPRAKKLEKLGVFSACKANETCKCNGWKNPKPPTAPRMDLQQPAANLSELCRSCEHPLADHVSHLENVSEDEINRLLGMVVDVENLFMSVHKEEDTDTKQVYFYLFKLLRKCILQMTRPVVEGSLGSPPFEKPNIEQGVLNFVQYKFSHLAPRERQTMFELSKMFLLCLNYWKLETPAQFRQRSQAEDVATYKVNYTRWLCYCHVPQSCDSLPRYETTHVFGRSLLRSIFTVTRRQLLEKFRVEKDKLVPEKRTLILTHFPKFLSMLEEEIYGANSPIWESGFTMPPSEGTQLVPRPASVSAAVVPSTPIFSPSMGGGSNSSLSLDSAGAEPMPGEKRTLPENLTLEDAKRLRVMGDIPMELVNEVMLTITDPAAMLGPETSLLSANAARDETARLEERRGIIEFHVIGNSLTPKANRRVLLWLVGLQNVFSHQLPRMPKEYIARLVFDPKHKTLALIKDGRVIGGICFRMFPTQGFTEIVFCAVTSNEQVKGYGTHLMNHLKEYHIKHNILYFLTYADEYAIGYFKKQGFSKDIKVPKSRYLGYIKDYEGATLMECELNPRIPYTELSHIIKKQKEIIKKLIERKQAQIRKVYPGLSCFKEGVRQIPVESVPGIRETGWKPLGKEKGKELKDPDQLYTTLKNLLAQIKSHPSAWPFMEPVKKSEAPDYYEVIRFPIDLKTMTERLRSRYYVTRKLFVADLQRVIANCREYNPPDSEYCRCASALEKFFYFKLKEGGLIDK
Protein cereblon/Histone acetyltransferase KAT2A (Homo sapiens), sequence (Q96SW2 whole entry partner): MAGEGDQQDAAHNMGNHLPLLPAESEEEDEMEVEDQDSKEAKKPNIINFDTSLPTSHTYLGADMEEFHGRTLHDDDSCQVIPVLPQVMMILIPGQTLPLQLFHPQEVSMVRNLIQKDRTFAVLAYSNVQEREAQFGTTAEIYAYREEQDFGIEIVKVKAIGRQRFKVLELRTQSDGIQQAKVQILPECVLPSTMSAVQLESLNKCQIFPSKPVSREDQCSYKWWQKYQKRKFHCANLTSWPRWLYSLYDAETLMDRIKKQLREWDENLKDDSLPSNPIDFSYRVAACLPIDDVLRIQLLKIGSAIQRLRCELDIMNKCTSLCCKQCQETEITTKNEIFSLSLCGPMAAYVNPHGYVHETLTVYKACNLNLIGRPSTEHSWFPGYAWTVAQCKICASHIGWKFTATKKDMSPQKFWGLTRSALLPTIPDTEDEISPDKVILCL
Series [8] concerns the target Protein cereblon/Interleukin-1 receptor-associated kinase 4 (Homo sapiens, UniProt Q9NWZ3+Q96SW2). As to the kind of experiment: PROTAC activity at CRBN/IRAK4 in human THP-1 cells assessed as induction of IRAK4 degradation by Immuno-blotting analysis. Format: cell-based.
The target in series [9] is Protein cereblon/Macrophage migration inhibitory factor (Homo sapiens) (UniProt P14174+Q96SW2). Kind of series: PROTAC activity at E3 ubiquitin ligase/MIF in human A549 cells assessed as induction of MIF degradation by Western blot analysis. Type of series: cell-based.
Protein cereblon/Macrophage migration inhibitory factor (Homo sapiens), sequence (Q96SW2 whole entry partner, one chain of several): as the sequence (Q96SW2 whole entry partner) above
Series [10] deals with T2, von Hippel-Lindau disease tumor suppressor/Interleukin-1 receptor-associated kinase 3 (Homo sapiens, UniProt Q9Y616+P40337). As to the kind of experiment: PROTAC activity at IRAK3/VHL E3 ligase in human THP-1 cells assessed as induction of IRAK3 degradation by Immuno-blot analysis. Type of series: cell-based.
The target in series [11] is T2, von Hippel-Lindau disease tumor suppressor/Interleukin-1 receptor-associated kinase 3. As to the kind of experiment: PROTAC activity at IRAK3/VHL E3 ligase in human THP-1 cells assessed as induction of IRAK3 degradation by measuring maximal efficacy incubated for 24 hrs by Western blot analysis. Type of series: cell-based.
Series [12] deals with von Hippel-Lindau disease tumor suppressor/Tyrosine-protein kinase BTK (Homo sapiens, UniProt Q06187+P40337, C481S). As to the kind of experiment: PROTAC activity at VHL/BTK C481S mutant in human THP-1 cells assessed as induction of BTK degradation incubated for 24 hrs by immunoblotting analysis. Type of series: cell-based.
Series [13] in a line: Cytotoxicity against mouse RAW264.7 cells assessed as reduction in cell growth. Format: toxicity, cell-based.
For series [14], the target named is Protein cereblon/Indoleamine 2,3-dioxygenase 1 (Homo sapiens) (UniProt P14902+Q96SW2). Kind of series: PROTAC activity against CRBN/IDO1 in human HeLa cells assessed as induction of IDO1 degradation at 2 uM incubated for 24 hrs by Western blot analysis relative to control. Format: cell-based.
Protein cereblon/Indoleamine 2,3-dioxygenase 1 (Homo sapiens), sequence (P14902 whole entry, looked up): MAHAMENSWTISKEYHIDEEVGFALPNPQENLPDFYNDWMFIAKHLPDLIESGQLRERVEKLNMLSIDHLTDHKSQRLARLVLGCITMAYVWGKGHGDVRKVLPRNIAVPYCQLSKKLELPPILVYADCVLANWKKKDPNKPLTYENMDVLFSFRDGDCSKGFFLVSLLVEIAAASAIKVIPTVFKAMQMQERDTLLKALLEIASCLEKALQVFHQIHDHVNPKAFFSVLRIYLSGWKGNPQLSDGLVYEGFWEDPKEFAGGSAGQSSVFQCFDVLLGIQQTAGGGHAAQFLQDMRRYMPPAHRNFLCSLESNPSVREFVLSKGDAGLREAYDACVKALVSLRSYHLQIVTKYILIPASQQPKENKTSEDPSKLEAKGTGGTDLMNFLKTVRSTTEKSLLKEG
Protein cereblon/Indoleamine 2,3-dioxygenase 1 (Homo sapiens), sequence (Q96SW2 whole entry, looked up): as the sequence (Q96SW2 whole entry partner) above
Series [15] deals with T3, Tyrosine-protein kinase ITK/TSK (Homo sapiens, UniProt Q08881).
T3 sequence (Q08881 whole entry): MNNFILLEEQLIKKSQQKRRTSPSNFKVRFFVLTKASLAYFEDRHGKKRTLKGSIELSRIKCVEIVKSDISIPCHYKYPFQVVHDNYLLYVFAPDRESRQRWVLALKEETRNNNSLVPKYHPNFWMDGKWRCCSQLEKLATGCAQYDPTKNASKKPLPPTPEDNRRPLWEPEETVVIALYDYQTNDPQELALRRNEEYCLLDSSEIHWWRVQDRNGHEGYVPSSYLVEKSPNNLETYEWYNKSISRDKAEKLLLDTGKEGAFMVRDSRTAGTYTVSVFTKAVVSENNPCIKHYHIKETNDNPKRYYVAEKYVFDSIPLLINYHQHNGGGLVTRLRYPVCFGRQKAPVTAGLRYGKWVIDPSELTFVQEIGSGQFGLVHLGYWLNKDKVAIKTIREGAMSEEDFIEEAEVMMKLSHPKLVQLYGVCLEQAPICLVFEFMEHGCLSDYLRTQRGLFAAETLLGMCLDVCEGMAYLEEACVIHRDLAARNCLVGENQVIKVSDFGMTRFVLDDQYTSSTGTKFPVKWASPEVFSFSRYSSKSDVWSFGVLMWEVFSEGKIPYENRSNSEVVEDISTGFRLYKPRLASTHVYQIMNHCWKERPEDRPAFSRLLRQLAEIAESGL
Kind of series: Inhibition of ITK (unknown origin).

Series [16] concerns the target T4, Tyrosine-protein kinase ITK/TSK (Homo sapiens) (UniProt Q08881).
T4 sequence (whole entry): T3 sequence (Q08881 whole entry)
As to the kind of experiment: Degradation of ITK (unknown origin) at 1 uM relative to control.

Receptor-interacting serine/threonine-protein kinase 2 (Homo sapiens), sequence (O43353 whole entry, looked up): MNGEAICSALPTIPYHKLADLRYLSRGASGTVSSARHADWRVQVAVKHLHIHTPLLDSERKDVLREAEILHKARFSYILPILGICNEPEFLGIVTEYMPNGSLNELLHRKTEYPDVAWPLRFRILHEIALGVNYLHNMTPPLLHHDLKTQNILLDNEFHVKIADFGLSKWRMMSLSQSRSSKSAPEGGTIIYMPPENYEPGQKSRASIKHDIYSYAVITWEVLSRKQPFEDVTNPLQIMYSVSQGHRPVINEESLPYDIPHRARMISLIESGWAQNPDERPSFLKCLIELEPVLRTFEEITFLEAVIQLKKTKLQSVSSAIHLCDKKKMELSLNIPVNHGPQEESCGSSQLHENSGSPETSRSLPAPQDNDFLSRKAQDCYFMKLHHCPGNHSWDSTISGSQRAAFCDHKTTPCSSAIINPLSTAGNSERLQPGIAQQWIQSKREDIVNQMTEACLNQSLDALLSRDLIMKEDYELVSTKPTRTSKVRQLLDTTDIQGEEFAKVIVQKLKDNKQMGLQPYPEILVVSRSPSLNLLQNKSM
Protein cereblon/Interleukin-1 receptor-associated kinase 4, sequence (Q9NWZ3 whole entry): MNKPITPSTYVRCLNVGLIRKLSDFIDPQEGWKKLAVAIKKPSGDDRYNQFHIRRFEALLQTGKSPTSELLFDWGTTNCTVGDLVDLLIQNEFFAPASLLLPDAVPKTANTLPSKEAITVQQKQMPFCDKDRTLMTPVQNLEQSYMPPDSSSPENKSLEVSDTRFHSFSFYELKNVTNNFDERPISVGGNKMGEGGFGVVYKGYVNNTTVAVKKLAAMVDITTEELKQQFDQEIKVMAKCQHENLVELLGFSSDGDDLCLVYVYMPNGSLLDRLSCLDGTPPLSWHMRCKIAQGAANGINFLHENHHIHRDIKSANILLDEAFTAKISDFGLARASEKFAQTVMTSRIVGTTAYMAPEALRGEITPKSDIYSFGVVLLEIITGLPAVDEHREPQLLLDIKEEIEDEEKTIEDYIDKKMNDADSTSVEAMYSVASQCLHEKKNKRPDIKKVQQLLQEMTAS
Protein cereblon/Interleukin-1 receptor-associated kinase 4, sequence (Q96SW2 whole entry): as the sequence (Q96SW2 whole entry partner) above
Protein cereblon/Histone deacetylase 8, sequence (Q9BY41 whole entry): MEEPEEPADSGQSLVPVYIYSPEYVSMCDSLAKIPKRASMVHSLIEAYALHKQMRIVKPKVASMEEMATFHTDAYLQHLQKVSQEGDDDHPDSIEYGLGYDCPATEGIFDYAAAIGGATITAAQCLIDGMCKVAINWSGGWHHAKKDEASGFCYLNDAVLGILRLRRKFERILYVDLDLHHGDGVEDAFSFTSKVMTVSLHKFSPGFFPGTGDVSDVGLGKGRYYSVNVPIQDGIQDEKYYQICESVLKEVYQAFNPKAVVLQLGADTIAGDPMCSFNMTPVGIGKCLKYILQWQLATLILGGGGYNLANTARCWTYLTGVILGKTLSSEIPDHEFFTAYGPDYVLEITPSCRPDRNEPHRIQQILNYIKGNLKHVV
Protein cereblon/Histone deacetylase 8, sequence (Q96SW2 whole entry): as the sequence (Q96SW2 whole entry partner) above

Regarding `CCCCN(Cc1ccc(C(=O)O)cc1)C(=O)Nc1ccc(OCCCCCCCn2cc(CNCc3ccc(-c4cccc5c4CN(C4CCC(=O)NC4=O)C5=O)cc3)nn2)cc1` (centres undefined), the DC50 in series [1] is 0.0019 µM.

For `O=C1CCC(N2C(=O)c3cccc(NCCCC(=O)Nc4ccc(N5Cc6ccc(O)cc6OC5=O)cc4)c3C2=O)C(=O)N1` (centres undefined), in [2], the Ki was found to be 0.055 µM.

Consider `Cc1ncsc1-c1ccc(CNC(=O)[C@@H]2C[C@@H](O)CN2C(=O)[C@@H](NC(=O)COCCOCCOCCOCCOc2cc3nccc(Nc4ccc5scnc5c4)c3cc2S(=O)(=O)C(C)(C)C)C(C)(C)C)cc1`, for which the Emax in series [3] is 95%.

On to `O=C1CCC(N2C(=O)c3ccc(NCCCCCCCCCCCNC(=O)c4cccc(SCc5cn(-c6cccc(C(=O)NO)c6)nn5)c4)cc3C2=O)C(=O)N1` (centres undefined), for which the DC50 in series [4] was 0.702 µM.

For the molecule `CN[C@@H](C)C(=O)N[C@H](C(=O)N1CCC[C@H]1c1nc(C(=O)c2ccc(F)cc2)cs1)C1CCN(C(=O)c2cnc(N3CCN(CCOc4cc5ncnc(Nc6n[nH]c(C)c6C)c5cc4S(=O)(=O)C(C)(C)C)CC3)nc2)CC1`, the pDC50 in series [5] stood at 7.9.

With `CN1C[C@H](Nc2cnn(C)c(=O)c2Br)C[C@H](c2ccc(C(=O)N(C)CCCN(C)c3ccc(CCCOc4cccc5c4C(=O)N(C4CCC(=O)NC4=O)C5=O)cc3)cc2)C1` (some centres undefined), the Emax in series [6] and in series [7] was 80% throughout.

With `CC(C)Nc1cc(C(=O)N[C@H]2CC[C@@H](C(=O)NCCCCCNC(=O)COc3cccc4c3C(=O)N(C3CCC(=O)NC3=O)C4=O)CC2)nc(-n2ccc3cc(C#N)cnc32)c1` (some centres undefined), the DC50 in series [8] came to 0.19 µM.

On to `O=C1CCC(N2C(=O)c3cccc(NCCCCCCCC(=O)Nc4ccc(N5Cc6ccc(O)cc6OC5=O)cc4)c3C2=O)C(=O)N1` (centres undefined), for which the Emax in series [9] is 91%.

Regarding `Cc1ncsc1-c1ccc([C@H](C)NC(=O)[C@@H]2C[C@@H](O)CN2C(=O)[C@@H](NC(=O)[C@H]2CC[C@H](C(=O)N3CCC(n4cc(-c5cnc(N)c(O[C@@H](C)c6c(Cl)ccc(F)c6Cl)c5)cn4)CC3)CC2)C(C)(C)C)cc1`, in [10], the 50% degradation concentration (DC50) is 0.094 µM. The maximal effect (Emax) in series [11] was found to be 95%.

Regarding `CN[C@@H](C)C(=O)N[C@H](C(=O)N1C[C@@H](NC(=O)OCCOCCOCCOCCN2CCN(CCCC(=O)N3CCC[C@@H](n4nc(-c5ccc(Oc6ccccc6)cc5)c5c(N)ncnc54)C3)CC2)C[C@H]1C(=O)N[C@@H]1CCCc2ccccc21)C1CCCCC1`, the DC50 in series [12] amounted to 0.2 µM.

With `O=C1CCC(N2C(=O)c3cccc(NCCCCCCCCCC(=O)Nc4ccc(N5Cc6ccc(O)cc6OC5=O)cc4)c3C2=O)C(=O)N1` (centres undefined), the Emax in series [9] turned out to be 64%.

In the case of `C=C1CC[C@H]2[C@@H](/C=C(\C)C(=O)[C@@]3(O)C[C@H](C)[C@H](O)[C@@H]3[C@H]1OCc1cn(CCOCCOCCOCCNc3cccc4c3C(=O)N(C3CCC(=O)NC3=O)C4=O)nn1)C2(C)C` (some centres undefined), the half-inhibitory concentration (IC50) in series [13] is 8.34 µM.

As to `O=C1CCC(N2C(=O)c3cccc(NCCCCCCC(=O)Nc4ccc(N5Cc6ccc(O)cc6OC5=O)cc4)c3C2=O)C(=O)N1` (centres undefined), the Emax in series [9] is 55%.

Consider `CC(C)Nc1cc(C(=O)N[C@H]2CC[C@@H](C(=O)NCCOCCNC(=O)COc3cccc4c3C(=O)N(C3CCC(=O)NC3=O)C4=O)CC2)nc(-n2ccc3cc(C#N)cnc32)c1` (some centres undefined), for which the DC50 in series [8] turned out to be 0.405 µM.

Turning to `O=C1CCC(N2C(=O)c3cccc(NCCCCC(=O)Nc4ccc(N5Cc6ccc(O)cc6OC5=O)cc4)c3C2=O)C(=O)N1` (centres undefined), the Emax in series [9] amounted to 21%. Further, in series [2], the Ki stood at 0.086 µM.

As to `O=C1CCC(N2C(=O)c3cccc(NCCOCCOCCOCCOCCOCCOCCOCCNCCNc4nonc4/C(=N/O)Nc4ccc(F)c(Br)c4)c3C2=O)C(=O)N1` (centres undefined), in series [14], the Emax worked out at 93%.

Regarding `CN1C(=O)CCC(N2C(=O)c3cccc(NCCCCCCCC(=O)Nc4ccc(N5Cc6ccc(O)cc6OC5=O)cc4)c3C2=O)C1=O` (centres undefined), the maximal effect (Emax) in series [9] was 55%.

Turning to `COc1cc(C)c(Sc2cnc(NC(=O)c3ccc(N4CCN(CCCCCCNC(=O)COc5cccc6c5C(=O)N(C5CCC(=O)NC5=O)C6=O)CC4)cc3)s2)cc1C(=O)N1CCN(C(C)=O)CC1` (centres undefined), in series [15], it took 0.0176 µM to reach half-maximal inhibition (IC50). For the same molecule, the degradation in series [16] is above 90%. For the same molecule, the pDC50 in series [5] worked out at 9.4.

For `CN[C@H](C)C(=O)N[C@@H](C(=O)N1Cc2cc(OCCOCCOCCOCCOc3cc4nccc(Nc5ccc6scnc6c5)c4cc3S(=O)(=O)C(C)(C)C)ccc2C[C@H]1C(=O)N[C@H]1CCCc2ccccc21)C(C)(C)C`, the pDC50 in series [5] is recorded as 9.4.
